# What was measured:
# [1] = target: human recombinant BACE2 (Homo sapiens (Human), UniProt Q9Y5Z0); experiment: In vitro enzymatic BACE2 FRET assay; type: biochemical; conditions: read-out: IC50 IP (μM) BACE2 enzyme
# Summary of the method: (§1)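 FRET cleavage assay using Ni-NTA-purified recombinant protease and 50 nM quenched peptide substrate, 1 h. Stopped by neutralising with Tris; fluorescence at 488/590 nm.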
# [2] = target: human recombinant BACE1 (Homo sapiens (Human), UniProt P56817); experiment: In vitro enzymatic BACE1 FRET assay; type: biochemical; conditions: read-out: IC50 IP (μM) BACE1 enzyme
# Summary of the method: as §1
# [3] = test system: Aβ40 in conditioned medium of cells stably expressing Amyloid Precursor Protein (APP); experiment: In vitro BACE-1 cell-based assay (Aβ40 sandwich ELISA); conditions: read-out: IC50 IP (μM) BACE1 cell
# Summary of the method: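 APP-stable cells, pre-cultured 24 h at 37° C in DMEM/10% FBS, were treated 24 h with compound in a 10-point series starting at 100 μM or 10 μM (0.1% DMSO final). Secreted Aβ40 in conditioned medium was measured by pAb40/biotin-6E10 sandwich ELISA with Europium time-resolved fluorescence; IC50 from percent inhibition versus concentration.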
# [4] = target: Recombinant Cat D (Homo sapiens (Human), UniProt P07339); experiment: In vitro enzymatic Cathepsin D (Cat D) FRET assay; type: biochemical; conditions: read-out: IC50 IP (μM) CatD
# Summary of the method: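 Cleavage of a 20 nM FRET peptide by CHO-derived Cat D over 1 h at pH 3.5 (citrate buffer with CHAPS, 10% DMSO final). Endpoint fluorescence is read after Tris quench.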
# [5] = test system: Aβ 40 in rat CSF; experiment: In vivo inhibition of beta-secretase: Aβ40 reduction in rat CSF; conditions: 10 mpk, after 4 h
# Summary of the method: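 Male Sprague Dawley rats (200 g) dosed orally in 2% HPMC, 1% Tween80, pH 2.2, at 3, 10 or 30 mg/kg; CSF and brain taken 4 h later. Brain homogenate centrifuged at 355,000 g; Aβ40 measured by ECL sandwich ELISA (4G8 capture, Abeta40 C-terminal Fab detection), as % reduction versus vehicle controls.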
# [6] = test system: Aβ 40 in rat brain; experiment: In vivo inhibition of beta-secretase: Aβ40 reduction in rat brain; conditions: 10 mpk, after 4 h
# Summary of the method: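 Rats were dosed by oral gavage at up to 100 mg/kg in 2% HPMC, 1% Tween80, pH 2.2, with vehicle-only controls. Supernatant Aβ40 was measured by ECL sandwich ELISA with biotinylated-4G8 capture and C-terminal Fab40 detection.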
# Chain of human recombinant BACE1 (P56817 46-501): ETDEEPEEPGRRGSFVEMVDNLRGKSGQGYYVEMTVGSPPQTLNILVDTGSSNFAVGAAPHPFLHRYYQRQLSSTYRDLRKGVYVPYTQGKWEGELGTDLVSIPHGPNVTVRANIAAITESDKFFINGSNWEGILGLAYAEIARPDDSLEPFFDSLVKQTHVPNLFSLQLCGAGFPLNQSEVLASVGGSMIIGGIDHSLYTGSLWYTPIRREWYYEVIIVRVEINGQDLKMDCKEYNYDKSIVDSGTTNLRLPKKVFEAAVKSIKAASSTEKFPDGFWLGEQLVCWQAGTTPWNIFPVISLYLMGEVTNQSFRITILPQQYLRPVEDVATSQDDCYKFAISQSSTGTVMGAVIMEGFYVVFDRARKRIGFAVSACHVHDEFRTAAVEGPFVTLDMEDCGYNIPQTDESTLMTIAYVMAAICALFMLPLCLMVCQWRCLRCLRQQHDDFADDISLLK
# Chain of human recombinant BACE2 (Q9Y5Z0 63-518): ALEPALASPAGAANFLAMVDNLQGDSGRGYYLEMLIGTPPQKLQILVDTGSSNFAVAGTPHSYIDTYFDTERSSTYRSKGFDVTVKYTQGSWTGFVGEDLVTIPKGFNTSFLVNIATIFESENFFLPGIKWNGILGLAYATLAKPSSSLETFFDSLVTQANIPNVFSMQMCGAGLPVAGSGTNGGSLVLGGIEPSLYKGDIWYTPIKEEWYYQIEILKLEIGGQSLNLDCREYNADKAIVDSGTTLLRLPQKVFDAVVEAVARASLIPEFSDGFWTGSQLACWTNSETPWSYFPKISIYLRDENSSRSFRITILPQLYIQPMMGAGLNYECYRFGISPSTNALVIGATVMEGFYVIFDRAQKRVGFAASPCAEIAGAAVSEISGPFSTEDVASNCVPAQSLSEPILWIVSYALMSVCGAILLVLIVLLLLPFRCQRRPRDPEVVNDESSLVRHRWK
# Chain of Recombinant Cat D (P07339 65-412): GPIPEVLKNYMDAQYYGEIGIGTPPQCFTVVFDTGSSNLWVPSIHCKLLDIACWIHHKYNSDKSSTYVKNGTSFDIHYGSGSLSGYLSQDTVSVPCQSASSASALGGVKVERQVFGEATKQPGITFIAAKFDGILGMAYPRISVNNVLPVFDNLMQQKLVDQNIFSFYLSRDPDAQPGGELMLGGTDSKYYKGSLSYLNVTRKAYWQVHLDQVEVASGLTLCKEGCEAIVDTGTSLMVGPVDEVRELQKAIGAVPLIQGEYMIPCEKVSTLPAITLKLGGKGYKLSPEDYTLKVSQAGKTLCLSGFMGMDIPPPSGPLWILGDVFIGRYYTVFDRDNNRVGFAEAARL
Structure (SMILES),IC50 [1],IC50 [2],IC50 [3],IC50 [4],% Aβ 40 reduction in rat CSF at 10 mpk [5],% Aβ 40 reduction in rat brain at 10 mpk [6]
"C[C@]1(c2cc(Nc3ncnc4cc(OCc5ncco5)cnc34)cc(F)c2F)N=C(N)S[C@@]2(C(F)F)C[C@@H]12 [Example 812, N-(3-((1S,5S,6S)-3-amino-1-(difluoromethyl)-5-methyl-2-thia-4-azabicyclo[4.1.0]hept-3-en-5-yl)-4,5-difluorophenyl)-7-(1,3-oxazol-2-ylmethoxy)pyrido[3,2-d]pyrimidin-4-amine]",0.0642 µM,0.000827 µM,0.00167 µM,118 µM,52%,38%
"C#CCOc1cnc2c(Nc3cc(F)c(F)c([C@@]4(C)N=C(N)S[C@@]5(CF)C[C@H]54)c3)ncnc2c1 [Example 813, N-(3-((1S,5S,6S)-3-amino-1-(fluoromethyl)-5-methyl-2-thia-4-azabicyclo[4.1.0]hept-3-en-5-yl)-4,5-difluorophenyl)-7-(2-propyn-1-yloxy)pyrido[3,2-d]pyrimidin-4-amine]",0.0258 µM,0.0009 µM,0.002 µM,447 µM,68%,50%
"C[C@]1(c2cc(NC(=O)c3cnc(OCC(F)(F)F)cn3)cc(F)c2F)N=C(N)S[C@@]2(CF)C[C@H]21 [Example 814, N-(3-((1S,5S,6S)-3-amino-1-(fluoromethyl)-5-methyl-2-thia-4-azabicyclo[4.1.0]hept-3-en-5-yl)-4,5-difluorophenyl)-5-(2,2,2-trifluoroethoxy)-2-pyrazinecarboxamide]",0.0601 µM,0.000829 µM,0.00608 µM,595 µM,76%,68%
"C#CCOc1cnc2c(Nc3ccc(F)c([C@@]4(C)N=C(N)S[C@@]5(CF)C[C@H]54)c3)nccc2n1 [Example 823, N-(3-((1S,5S,6S)-3-amino-1-(fluoromethyl)-5-methyl-2-thia-4-azabicyclo[4.1.0]hept-3-en-5-yl)-4-fluorophenyl)-2-(2-propyn-1-yloxy)pyrido[3,4-b]pyrazin-5-amine]",0.0296 µM,0.000791 µM,0.00186 µM,351 µM,78%,78%
"C#C[C@H](C)Oc1cnc2c(Nc3ccc(F)c([C@@]4(C)N=C(N)S[C@@]5(CF)C[C@H]54)c3)nccc2n1 [Example 827, N-(3-((1S,5S,6S)-3-amino-1-(fluoromethyl)-5-methyl-2-thia-4-azabicyclo[4.1.0]hept-3-en-5-yl)-4-fluorophenyl)-2-(((1S)-1-methyl-2-propyn-1-yl)oxy)pyrido[3,4-b]pyrazin-5-amine]",0.263 µM,0.000771 µM,0.0207 µM,810 µM,41%,19%
"Cc1nc(COc2cnc3c(Nc4ccc(F)c([C@@]5(C)N=C(N)S[C@@]6(CF)C[C@H]65)c4)nccc3n2)no1 [Example 828, N-(3-((1S,5S,6S)-3-amino-1-(fluoromethyl)-5-methyl-2-thia-4-azabicyclo[4.1.0]hept-3-en-5-yl)-4-fluorophenyl)-2-((5-methyl-1,2,4-oxadiazol-3-yl)methoxy)pyrido[3,4-b]pyrazin-5-amine]",0.207 µM,0.00496 µM,0.00446 µM,995 µM,24%,10%
"COC[C@]12C[C@H]1[C@@](C)(c1cc(NC(=O)c3cnc(OCC(F)(F)F)cn3)ccc1F)N=C(N)S2 [Example 831, N-(3-((1S,5S,6S)-3-amino-1-(methoxymethyl)-5-methyl-2-thia-4-azabicyclo[4.1.0]hept-3-en-5-yl)-4-fluorophenyl)-5-(2,2,2-trifluoroethoxy)-2-pyrazinecarboxamide]",0.118 µM,0.00299 µM,0.00359 µM,> 400 µM,49%,16%
"C#CCOc1cnc(C(=O)Nc2ccc(F)c([C@@]3(C)N=C(N)S[C@@]4(COC)C[C@H]43)c2)cn1 [Example 834, N-(3-((1S,5S,6S)-3-amino-1-(methoxymethyl)-5-methyl-2-thia-4-azabicyclo[4.1.0]hept-3-en-5-yl)-4-fluorophenyl)-5-(2-propyn-1-yloxy)-2-pyrazinecarboxamide]",0.0127 µM,0.000404 µM,0.000489 µM,318 µM,83%,83%
"C#CCOc1cnc2c(Nc3cc(F)c(F)c([C@@]4(CF)N=C(N)S[C@H]5C[C@H]54)c3)nccc2n1 [Example 841, N-(3-((1S,5S,6S)-3-amino-5-(fluoromethyl)-2-thia-4-azabicyclo[4.1.0]hept-3-en-5-yl)-4,5-difluorophenyl)-2-(2-propyn-1-yloxy)pyrido[3,4-b]pyrazin-5-amine]",0.0449 µM,0.00114 µM,0.0216 µM,598 µM,58%,44%
"NC1=N[C@](CF)(c2cc(Nc3nccc4nc(OCc5ncco5)cnc34)cc(F)c2F)[C@@H]2C[C@@H]2S1 [Example 842, N-(3-((1S,5S,6S)-3-amino-5-(fluoromethyl)-2-thia-4-azabicyclo[4.1.0]hept-3-en-5-yl)-4,5-difluorophenyl)-2-(1,3-oxazol-2-ylmethoxy)pyrido[3,4-b]pyrazin-5-amine]",0.119 µM,0.00256 µM,0.0217 µM,> 400 µM,51%,25%
"NC1=N[C@](CF)(c2cc(Nc3nccc4nc(OCc5cocn5)cnc34)cc(F)c2F)[C@@H]2C[C@@H]2S1 [Example 843, N-(3-((1S,5S,6S)-3-amino-5-(fluoromethyl)-2-thia-4-azabicyclo[4.1.0]hept-3-en-5-yl)-4,5-difluorophenyl)-2-(1,3-oxazol-4-ylmethoxy)pyrido[3,4-b]pyrazin-5-amine]",0.115 µM,0.00378 µM,0.0493 µM,432 µM,51%,16%
"C#CCOc1cnc2c(Nc3cc(F)c(F)c([C@@]4(C)N=C(N)S[C@@]5(C(N)=O)C[C@H]54)c3)nccc2n1 [Example 911, (1S,5S,6S)-3-amino-5-(2,3-difluoro-5-((2-(2-propyn-1-yloxy)pyrido[3,4-b]pyrazin-5-yl)amino)phenyl)-5-methyl-2-thia-4-azabicyclo[4.1.0]hept-3-ene-1-carboxamide]",0.00714 µM,0.000649 µM,0.0038 µM,> 400 µM,21%,20%
"C#CCOc1cnc2c(Nc3cc(F)c(F)c([C@@]4(C)N=C(N)S[C@@]5(C(=O)NC)C[C@H]54)c3)nccc2n1 [Example 915, (1S,5S,6S)-3-amino-5-(2,3-difluoro-5-((2-(2-propyn-1-yloxy)pyrido[3,4-b]pyrazin-5-yl)amino)phenyl)-N,5-dimethyl-2-thia-4-azabicyclo[4.1.0]hept-3-ene-1-carboxamide]",0.0101 µM,0.000426 µM,0.00195 µM,> 400 µM,51%,47%
"C#CCOc1cnc2c(Nc3cc(F)c(F)c([C@@]4(C)N=C(N)S[C@@]5(C#N)C[C@H]54)c3)ncnc2c1 [Example 921, (1S,5S,6S)-3-amino-5-(2,3-difluoro-5-((7-(2-propyn-1-yloxy)pyrido[3,2-d]pyrimidin-4-yl)amino)phenyl)-5-methyl-2-thia-4-azabicyclo[4.1.0]hept-3-ene-1-carbonitrile]",0.0627 µM,0.00198 µM,0.0206 µM,172 µM,70%,64%
"C#CCOc1cnc(C(=O)Nc2cc(F)c(F)c([C@@]3(C)N=C(N)S[C@@]4(C#N)C[C@H]43)c2)cn1 [Example 924, N-(3-((1S,5S,6S)-3-amino-1-cyano-5-methyl-2-thia-4-azabicyclo[4.1.0]hept-3-en-5-yl)-4,5-difluorophenyl)-5-(2-propyn-1-yloxy)-2-pyrazinecarboxamide]",< 0.00203 µM,0.000249 µM,0.00138 µM,17.8 µM,84%,76%

# From patent US20160046618A1, “Cyclopropyl Fused Thiazin-2-Amine Compounds as Beta-Secretase Inhibitors and Methods of Use” (AMGEN INC., priority 2014, published 2016)
